This note sets out measurements from patent US10017495B2, “Therapeutically active compounds and their methods of use” (AGIOS PHARMACEUTICALS, INC, priority 2013, dated 2018).

The target in one experiment is T1, IDH2 R140Q (Homo sapiens, UniProt P48735, R140Q).
T1 sequence (P48735 40-452 R140Q): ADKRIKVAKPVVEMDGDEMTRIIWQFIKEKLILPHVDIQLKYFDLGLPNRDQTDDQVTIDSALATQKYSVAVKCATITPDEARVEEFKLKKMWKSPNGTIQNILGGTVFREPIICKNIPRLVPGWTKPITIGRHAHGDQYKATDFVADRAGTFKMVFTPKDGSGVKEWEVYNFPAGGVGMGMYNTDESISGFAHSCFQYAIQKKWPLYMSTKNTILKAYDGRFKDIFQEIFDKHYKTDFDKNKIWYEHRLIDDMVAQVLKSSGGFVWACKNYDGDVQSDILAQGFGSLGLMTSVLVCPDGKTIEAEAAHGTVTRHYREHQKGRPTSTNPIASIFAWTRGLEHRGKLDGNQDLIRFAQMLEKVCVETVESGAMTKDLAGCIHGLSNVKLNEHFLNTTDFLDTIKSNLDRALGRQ
As to the kind of experiment: IDH2 R140Q enzymatic assay (cofactor depletion assay, diaphorase/resazurin readout). The settings on record: read-out: Enz R140Q. Format: biochemical. How it is done: [The source words this procedure for another variant and says it was used here with some conditions changed.] Compounds are assayed for IDH2 R172K inhibitory activity through a cofactor depletion assay. […] The reaction is terminated by the addition of a second enzyme, diaphorase, and a corresponding substrate, resazurin. Diaphorase reduces resazurin to the highly fluorescent resorufin with the concomitant oxidation of NADPH to NADP, both halting the IDH2 reaction by depleting the available cofactor pool and facilitating quantitation of the amount of cofactor remaining after a specific time period through quantitative production of an easily detected fluorophore.
The test compound is then incubated for one hour at room temperature with the enzyme; before starting the IDH2 reaction with the addition of 10 μl of substrate mix containing 50 μM NADPH and 6.3 mM α-KG in the buffer described above. After a further one hour of incubation at room temperature, the reaction is halted and the remaining NADPH measured through conversion of resazurin to resorufin by the addition of 25 μl Stop Mix (36 μg/ml diaphorase enzyme and 60 μM resazurin; in buffer). After one minute of incubation the plate is read on a plate reader at Ex544/Em590.

Experiment [1] relates to U87MG pLVX-IDH2 R140Q-neo cells. The experiment in a line: U87MG pLVX-IDH2 R140Q-Neo cell based assay (2-HG in media by LC-MS). The settings on record: 48 hours; for IC50: Homo sapiens, U-87 MG. How it is done:
U87MG pLVX-IDH2 R140Q-Neo Cell Based Assay.
U87MG pLVX-IDH2 R140Q-neo cells are grown in T125 flasks in DMEM containing 10% FBS, 1× penicillin/streptomycin and 500 μg/mL G418. They are harvested by trypsin and seeded into 96 well white bottom plates at a density of 5000 cell/well in 100 μl/well in DMEM with 10% FBS. No cells are plated in columns 1 and 12. Cells are incubated overnight at 37° C. in 5% CO2. The next day compounds are made up at 2× concentration and 100 ul are added to each cell well. The final concentration of DMSO is 0.2% and the DMSO control wells are plated in row G. The plates are then placed in the incubator for 48 hours. At 48 hours, 100 ul of media is removed from each well and analyzed by LC-MS for 2-HG concentrations. The cell plate is placed back in the incubator for another 24 hours. At 72 hours post compound addition, 10 mL/plate of Promega Cell Titer Glo reagent is thawed and mixed. The cell plate is removed from the incubator and allowed to equilibrate to room temperature. Then 100 ul of reagent is added to each well of media. The cell plate is then placed on an orbital shaker for 10 minutes and then allowed to sit at room temperature for 20 minutes. The plate is then read for luminescence with an integration time of 500 ms to determine compound effects on growth inhibition.

Regarding `CC(C)Nc1nc(Nc2ccnc(C(F)(F)F)c2)nc(C2=CCCCC2)n1` [Compound 1, 6-(cyclohex-1-en-1-yl)-N2-isopropyl-N4-(2-(trifluoromethyl)pyridin-4-yl)-1,3,5-triazine-2,4-diamine], the IC50 (at IDH2 R140Q; in experiment [1]) was less than 100 nM throughout.
On to `CC(C)Nc1nc(Nc2ccnc(C(F)(F)F)c2)nc(C2CCCCC2)n1` [Compound 2], for which the IC50 (at IDH2 R140Q; in experiment [1]) was less than 100 nM in each case.
For the compound `CC(C)Nc1nc(Nc2ccnc(C(F)(F)F)c2)nc(C(C)(C)C)n1` [Compound 3, 6-(tert-butyl)-N2-isopropyl-N4-(2-(trifluoromethyl)pyridin-4-yl)-1,3,5-triazine-2,4-diamine], the IC50 (at IDH2 R140Q; in experiment [1]) was 100 to 1000 nM throughout.
With `CC(C)Nc1nc(Nc2ccnc(C(F)(F)F)c2)nc(C2CCCC2)n1` [Compound 4, 6-cyclopentyl-N2-isopropyl-N4-(2-(trifluoromethyl)pyridin-4-yl)-1,3,5-triazine-2,4-diamine], the IC50 was less than 100 nM at IDH2 R140Q and 100 to 1000 nM in experiment [1].
The corresponding values for `CC(C)Nc1nc(Nc2ccnc(C(F)(F)F)c2)nc(C2CCC2)n1` [Compound 5, 6-cyclobutyl-N2-isopropyl-N4-(2-(trifluoromethyl)pyridin-4-yl)-1,3,5-triazine-2,4-diamine] are less than 100 nM and 100 to 1000 nM.
For `CC(C)Nc1nc(Nc2ccnc(C(F)(F)F)c2)nc(C2=CC(=O)CCC2)n1` [Compound 6, 3-(4-(isopropylamino)-6-((2-(trifluoromethyl)pyridin-4-yl)amino)-1,3,5-triazin-2-yl)cyclohex-2-enone], the IC50 at IDH2 R140Q was 100 to 1000 nM; in experiment [1], less than 100 nM.
Regarding `CC(C)Nc1nc(Nc2ccnc(C(F)(F)F)c2)nc(C2=CC(O)CCC2)n1` (stereo not shown) [Compound 7, 3-(4-(isopropylamino)-6-((2-(trifluoromethyl)pyridin-4-yl)amino)-1,3,5-triazin-2-yl)cyclohex-2-enol], the IC50 (on IDH2 R140Q; in experiment [1]) was less than 100 nM each time.
Take `CC(C)Nc1nc(Nc2ccnc(C(F)(F)F)c2)nc(C2CCCC(=O)C2)n1` (stereo not shown) [Compound 8, 3-(4-(isopropylamino)-6-((2-(trifluoro-methyl)pyridin-4-yl)amino)-1,3,5-triazin-2-yl)cyclohexanone]: the IC50 at IDH2 R140Q is 100 to 1000 nM; in experiment [1], less than 100 nM.
`CC1CCCC(c2nc(Nc3ccnc(C(F)(F)F)c3)nc(NC(C)C)n2)C1` (stereo not shown) [Compound 9]: the results for the IC50 (on IDH2 R140Q; in experiment [1]) were less than 100 nM and 100 to 1000 nM, respectively.
`CC1CC(C)CC(c2nc(Nc3ccnc(C(F)(F)F)c3)nc(NC(C)C)n2)C1` (stereo not shown) [Compound 10]: on IDH2 R140Q, the IC50 is 100 to 1000 nM.
Consider `CC(C)Nc1nc(Nc2ccnc(C(F)(F)F)c2)nc(C2CCCC(O)C2)n1` (stereo not shown) [Compound 11, 3-(4-(isopropylamino)-6-((2-(trifluoromethyl)pyridin-4-yl)amino)-1,3,5-triazin-2-yl)cyclohexanol], for which the IC50 (on IDH2 R140Q; in experiment [1]) was less than 100 nM throughout.
Consider `CC(C)Nc1nc(Nc2ccnc(C(F)(F)F)c2)nc(C2=CC(=O)NCC2)n1` [Compound 12], for which the IC50 is less than 100 nM at IDH2 R140Q and 100 to 1000 nM in experiment [1].
In the case of `CC(C)Nc1nc(Nc2ccnc(C(F)(F)F)c2)nc(C2CCNC(=O)C2)n1` (stereo not shown) [Compound 13], the IC50 at IDH2 R140Q is 1000 to 10000 nM. Moreover, in experiment [1], the “Cell R140Q” value was “No fit”.
